Data taken from patent US8592405B2, “Synergistic antimicrobial composition” (Dow Global Technologies LLC, priority 2009, dated 2013).
Several values for one entry are separate records, joined by “and”; a condition that tells them apart may be missing. Equal entries are not always repeated.

Key:
Type in all cases: cell-based
Aspergillus niger (An) = test: Fungal efficacy testing, modified ASTM 5590 (12-well, dry paint film); settings: three weeks
Procedure: (§1) Samples of white acrylic latex paint free of biocides were prepared in 50 ml aliquots. Each biocide was post added to give the necessary active ingredient concentration in the paint. The total biocides concentrations tested were 750, 1500, 2500 and 5000 ppm. After biocides addition, each sample was hand mixed for a minimum of 30 sec, followed by a 3 min run on the paint shaker (RED DEVIL). Each of the paint samples as well as a control sample (containing no biocide) were used to prepare films on black plastic-vinyl chloride/acetate copolymer panels (LENETA, Mahwah, N.J.) using a 3 mil bird bar applicator. The panels were thoroughly dried for 5 days avoiding direct exposure to sunlight. Square discs (15 mm^2) were cut out from each panel and were used as the substrate for fungal and algal efficacy tests. This sample size allowed for an agar border when the sample disc was placed into the well of the test plate.
(§2) The appropriate media (BOLD'S 3N for Chlorophytes, BG-11 for Cyanobacteria, and PDA for fungi) were used to support microbial growth. The test plates were maintained at room temp (25° C.-26° C.), in a cycled light-dark environment, for 3 weeks for algae. Plates for fungal challenge tests were maintained at 30C for three weeks. At the end of incubation period the samples were scored for percent area covered by visible microbial growth.
ASTM 5590 is a standard accelerated test method for determining resistance of various coatings (including paints) to fungal defacement. To accommodate for high-throughput screening, this method was scaled down from petri plates to 12-well plates. To set up the test, an agar plug was placed at the bottom of each well of the sterile 12-well plate. A single coupon was placed with a pair of sterile forceps at the center of the agar plug (on top) with the painted surface facing upwards. Each well was inoculated with 150 μl of organism (1×10^6 cfu/ml) making sure that the whole surface (paint film as well as the agar surrounding it) was evenly covered. The plates were incubated at 30° C. in presence of moisture, for a period of three weeks. The total percent area covered was evaluated and recorded at the end of each week after the 2nd week and recorded in increments of 5%. […]

Gleocapsa sp. (Gs) = test: Algal efficacy testing, modified ASTM 5589 (12-well, dry paint film); settings: at the Total conc, three weeks
Procedure: as §1, §2
(§3) ASTM 5589 is a standard accelerated test method for determining resistance of various coatings (including paints) to algal defacement. To accommodate for high-throughput screening, this method was scaled down from petri plates to 12-well plates. A single coupon was placed with a pair of sterile forceps at the center of the agar plug (on top) with the painted surface facing upwards. Each well was inoculated with 150 μl of organism (1×10^8 cfu/ml) making sure that the whole surface (paint film as well as the agar surrounding it) was evenly covered. The plates were incubated at room temp (25° C.-26° C.) with cyclic exposure to light (OTT-Lite model #OTL4012P, 40 Watt, 26 KLumen) and dark phases, for a period of three weeks. The total area covered was evaluated at the end of each week according to percent area covered in 5% increments. While rating the plates, notations were made for zones of inhibition.
(§4) The SI is calculated based on F. C. Kull et.

Nostoc commune (Nc) = test: as above; settings: three weeks
Procedure: as §1, §2, §3, §4

[1] = system: Calothrix parientina (Cp); test: as above; settings: three weeks
Procedure: as §1, §2, §3, §4

[2] = system: Trentepohlia aurea + Trentepohlia odorata (Ta + To); test: as above; settings: three weeks
Procedure: as §1, §2, §3, §4

Oscillatoria sp. (Os) = test: as above; settings: at the Total conc, three weeks
Procedure: as §1, §2, §3, §4

[3] = system: Chlorella sp. + Chlorella kessleri (Cs + Ck); test: as above; settings: at the Total conc, three weeks
Procedure: as §1, §2, §3, §4

Trichoderma viride (Tv) = test: Fungal efficacy testing, modified ASTM 5590 (12-well, dry paint film); settings: three weeks
Procedure: as §1, §2
(§5) ASTM 5590 is a standard accelerated test method for determining resistance of various coatings (including paints) to fungal defacement. To accommodate for high-throughput screening, this method was scaled down from petri plates to 12-well plates. To set up the test, an agar plug was placed at the bottom of each well of the sterile 12-well plate. A single coupon was placed with a pair of sterile forceps at the center of the agar plug (on top) with the painted surface facing upwards. Each well was inoculated with 150 μl of organism (1×10^6 cfu/ml) making sure that the whole surface (paint film as well as the agar surrounding it) was evenly covered. The plates were incubated at 30° C. in presence of moisture, for a period of three weeks. The total percent area covered was evaluated and recorded at the end of each week after the 2nd week and recorded in increments of 5%.
as §4

[4] = system: Alternaria alternata (Aa); test: as above; settings: at the Total conc, three weeks
Procedure: as §1, §2, §5, §4

[5] = system: Aureobasidium pullulans (Ap); test: as above; settings: at the Total conc, three weeks
Procedure: as §1, §2, §5, §4

[6] = system: Penicillium funiculosum (Pf); test: as above; settings: at the Total conc, three weeks
Procedure: as §1, §2, §5, §4

[7] = system: Stachybotris chartarum (Sc); test: as above; settings: three weeks
Procedure: as §1, §2, §5, §4

[8] = system: Cladosporium herbarum (Ch); test: as above; settings: at the Total conc, three weeks
Procedure: as §1, §2, §5, §4

[9] = system: Cp + To + Ta (Calotrix parientina, Trentepohlia odorata, Trentepohlia aurea); test: Algal efficacy testing, modified ASTM 5589 (6-well, mixed inoculum, Example 4); settings: four weeks; for Total conc, ppm: Cp + To + Ta mixed inoculum, NE = no end point at the concentration tested; for % inhibition: Cp + To + Ta, at the Total conc
Procedure: (§6) A single or blend of biocides was post added into white acrylic latex paint free of biocides to give a maximum total active ingredient/s concentration tested. This paint was then diluted with a biocide free acrylic latex paint at concentrations range of 75 to 12.5% w/w to give desired concentrations for the testing. Depending on the type of biocide blends tested, the total biocides concentrations varies from 200 to 5000 ppm. After biocides addition or dilution each sample was hand mixed for at least a minute until uniformity is achieved. Each of the paint samples as well as a control sample (containing no biocide) were used to prepare films on black plastic-vinyl chloride/acetate copolymer panels (LENETA, Mahwah, N.J.) using a 3 mil bird bar applicator. The panels were thoroughly dried for at least 2 days avoiding direct exposure to sunlight. Square discs (0.5 inch^2, 13 mm^2) were cut out from each panel and were used as the substrate for fungal and algal efficacy tests. This sample size allowed for an agar border when the sample disc was placed into the well of the test plate. Each sample was tested in duplicate
as §2, with “for four” for “for 3”, “at 30 C” for “at 30C”, “for four” for “for three”, “of the” for “of”
as §3, with “6-well” for “12-well”, “upwards. Algal inoculums were prepared by mixing equal concentrations (1×10^6 cfu/ml) and equal volumes (depending on number of samples to be inoculated) of like growing organisms. In this study, Gloeocapsa sp. and Oscillatoria sp. were a mix of cyanobacteria grown on BG-11 media. Chlorella sp., Chlorella kessleri, and Nostoc commune are unicellular chlorphytes that were mixed and grown on Bold media. Trentepohlia aurea, Trentepohlia odorata, and Calotrix parientina are filamentous algae that were mixed and grown on Bold media.” for “upwards.”, “400” for “150”, “mixture (1×10^6” for “(1×10^8”, “four” for “three”

[10] = system: Cs + Ck + Nc (Chlorella sp., Chlorella kessleri, Nostoc commune); test: as above; settings: four weeks; for Total conc, ppm: Cs + Ck + Nc mixed inoculum, NE = no end point at the concentration tested; for % inhibition: Cs + Ck + Nc, at the Total conc
Procedure: as §6
as §2, with “for four” for “for 3”, “at 30 C” for “at 30C”, “for four” for “for three”, “of the” for “of”
as §3, with “6-well” for “12-well”, “upwards. Algal inoculums were prepared by mixing equal concentrations (1×10^6 cfu/ml) and equal volumes (depending on number of samples to be inoculated) of like growing organisms. In this study, Gloeocapsa sp. and Oscillatoria sp. were a mix of cyanobacteria grown on BG-11 media. Chlorella sp., Chlorella kessleri, and Nostoc commune are unicellular chlorphytes that were mixed and grown on Bold media. Trentepohlia aurea, Trentepohlia odorata, and Calotrix parientina are filamentous algae that were mixed and grown on Bold media.” for “upwards.”, “400” for “150”, “mixture (1×10^6” for “(1×10^8”, “four” for “three”

[11] = system: Gs + Os (Gloeocapsa sp. + Oscillatoria sp.); test: as above; settings: four weeks; for Total conc, ppm: Gs + Os mixed inoculum, NE = no end point at the concentration tested; for % inhibition: Gs + Os, at the Total conc
Procedure: as §6
as §2, with “for four” for “for 3”, “at 30 C” for “at 30C”, “for four” for “for three”, “of the” for “of”
as §3, with “6-well” for “12-well”, “upwards. Algal inoculums were prepared by mixing equal concentrations (1×10^6 cfu/ml) and equal volumes (depending on number of samples to be inoculated) of like growing organisms. In this study, Gloeocapsa sp. and Oscillatoria sp. were a mix of cyanobacteria grown on BG-11 media. Chlorella sp., Chlorella kessleri, and Nostoc commune are unicellular chlorphytes that were mixed and grown on Bold media. Trentepohlia aurea, Trentepohlia odorata, and Calotrix parientina are filamentous algae that were mixed and grown on Bold media.” for “upwards.”, “400” for “150”, “mixture (1×10^6” for “(1×10^8”, “four” for “three”

[12] = system: Ch + Tv (Cladosporium herbarum + Trichoderma viride); test: Fungal efficacy testing, modified ASTM 5590 (6-well, mixed inoculum, Example 4); settings: four weeks; for Total conc, ppm: Ch + Tv mixed inoculum, NE = no end point at the concentration tested; for % inhibition: Ch + Tv, at the Total conc
Procedure: [The source words this procedure for another target and reports this target under the same test.] as §4, §6
as §2, with “for four” for “for 3”, “at 30 C” for “at 30C”, “for four” for “for three”, “of the” for “of”
as §5, with “6-well” for “12-well”, “upwards. Fungal inoculums were prepared by mixing equal concentrations (1×10^6 cfu/ml) and equal volumes (depending on number of samples to be tested) of like growing organisms. Cladosporium herbarum was mixed with Aureobasidium pullulans. Aspergillus niger was mixed with Penicillium funiculosum. Alternaria alternata was mixed with Trichoderma viride.” for “upwards.”, “400” for “150”, “organism mixture” for “organism”, “four” for “three”

[13] = system: Aa + Ap (Alternaria alternata + Aureobasidium pullulans); test: as above; settings: four weeks; for Total conc, ppm: Aa + Ap mixed inoculum, NE = no end point at the concentration tested; for % inhibition: Aa + Ap, at the Total conc
Procedure: [The source words this procedure for another target and reports this target under the same test.] as §4, §6
as §2, with “for four” for “for 3”, “at 30 C” for “at 30C”, “for four” for “for three”, “of the” for “of”
as §5, with “6-well” for “12-well”, “upwards. Fungal inoculums were prepared by mixing equal concentrations (1×10^6 cfu/ml) and equal volumes (depending on number of samples to be tested) of like growing organisms. Cladosporium herbarum was mixed with Aureobasidium pullulans. Aspergillus niger was mixed with Penicillium funiculosum. Alternaria alternata was mixed with Trichoderma viride.” for “upwards.”, “400” for “150”, “organism mixture” for “organism”, “four” for “three”

[14] = system: An + Pf (Aspergillus niger + Penicillium funiculosum); test: as above; settings: four weeks; for Total conc, ppm: An + Pf mixed inoculum, NE = no end point at the concentration tested; for % inhibition: An + Pf, at the Total conc
Procedure: as §4, §6
as §2, with “for four” for “for 3”, “at 30 C” for “at 30C”, “for four” for “for three”, “of the” for “of”
as §5, with “6-well” for “12-well”, “upwards. Fungal inoculums were prepared by mixing equal concentrations (1×10^6 cfu/ml) and equal volumes (depending on number of samples to be tested) of like growing organisms. Cladosporium herbarum was mixed with Aureobasidium pullulans. Aspergillus niger was mixed with Penicillium funiculosum. Alternaria alternata was mixed with Trichoderma viride.” for “upwards.”, “400” for “150”, “organism mixture” for “organism”, “four” for “three”

[15] = total biocide in paint taken as minimum inhibitory concentration, 30 C
[16] = total biocide in paint taken as minimum inhibitory concentration

| Molecule | Total conc, ppm [9] [ppm] | % inhibition [9] [%] | Total conc, ppm [10] [ppm] | % inhibition [10] [%] | Total conc, ppm [11] [ppm] | % inhibition [11] [%] | Total conc, ppm [12] [ppm] | % inhibition [12] [%] | Total conc, ppm [13] [ppm] | % inhibition [13] [%] | Total conc, ppm [14] [ppm] | % inhibition [14] [%] | other results |
| --- | --- | --- | --- | --- | --- | --- | --- | --- | --- | --- | --- | --- | --- |
| CCCCNC(=O)OCC#CI [IPBC, 3-iodo-2-propynyl-butylcarbamate] |  |  |  |  |  |  |  |  |  |  |  |  | % inhibition (Aspergillus niger (An); at the Total conc): 87.5% and 80% and 75%; Total conc, ppm (Aspergillus niger (An); [15]): 2500 ppm and 1500 ppm; % inhibition (Gleocapsa sp. (Gs)): 95% and 50% and 80%; % inhibition (Nostoc commune (Nc); at the Total conc): 87.5% and 90% and 80%; Total conc, ppm (Nostoc commune (Nc); [16]): 1500 ppm and 2500 ppm; % inhibition ([1]; at the Total conc): 97.5% and 90% and 80%; Total conc, ppm [1, 16]: 2500 ppm and 5000 ppm; % inhibition ([2]; at the Total conc): 85% and 82.5% and 72.5%; Total conc, ppm [2, 16]: 2500 ppm and 1500 ppm; % inhibition (Oscillatoria sp. (Os)): 70% and 62.5% and 77.5%; % inhibition [3]: 97.5% and 90% and 70%; % inhibition (Trichoderma viride (Tv); at the Total conc): 90% and 72.5% and 62.5%; Total conc, ppm (Trichoderma viride (Tv); [15]): 750 ppm and 1500 ppm; % inhibition [4]: 97.5% and 50% and 100%; % inhibition [5]: 97.5% and 60% and 87.5%; % inhibition [6]: 97.5% and 60% and 70%; % inhibition ([7]; at the Total conc): 82.5%; Total conc, ppm [7, 15]: 2500 ppm; % inhibition [8]: 75% and 80% |
| CCCCCCCCn1sccc1=O [OIT, 2-n-octyl-4-isothiazolin-3-one] | 1350 | 95 | 1350 | 100 | 1350 | 100 | 450 | 50 | 1350 | 100 | 450 | 100 |  |
| c1ccc2[nH]c(-c3cscn3)nc2c1 [TBZ, thiabendazole] | 1875 | 95 | 1250 | 100 | 1875 | 100 | 2500 | 50 | 3750 | 80 | 625 | 100 |  |
| zinc pyrithione [ZPT] | 625 | 100 | 1250 | 100 | 625 | 100 |  |  | 2500 | 100 | 1250 | 100 |  |
